Data reported in publication PMC9505670, “The Effect of Short-Chain Fatty Acids on Growth of Cryptosporidium parvum In Vitro” (Microorganisms, 2022).
Where “and” joins values, the source holds several entries; their conditions need not be identical. Identical values can stand only once. Like-named read-outs stand apart in the source and are kept apart here. Each block holds one compound with its values, some of them ahead of it.

How the values were obtained:
[1] = test system: Cryptosporidium; parameters: method as in PMID 8917558; conditions: previously reported; cited from earlier work
[2] = test system: C. parvum; assay: C. parvum in vitro culture assay, intracellular stages in infected HCT-8 cells; format: cell-based, Cryptosporidium parvum IOWA isolate
Procedure: Growth of C. parvum in cell culture was performed as described previously. Briefly, purified C. parvum IOWA isolate oocysts were washed with phosphate-buffered saline (PBS, pH 7.4) to remove the storage buffer (2.5% w/v aqueous potassium dichromate) and resuspended in RPMI 1640 media supplemented with 0.75% sodium taurocholate and incubated for 30 min at 37 °C. The excystation mixture containing oocysts, oocyst shells and free sporozoites was diluted with RPMI 1640 with 10% fetal bovine serum (FBS). Approximately 1 × 10^5 oocysts and sporozoites were dispensed per well in 24-well plates containing confluent HCT-8 cells. Host cells inoculated with the parasite mixture were incubated for 3 h and subsequently washed with PBS to remove free parasites (those that had not invaded host cells). PBS was replaced with fresh RPMI 1640 with 10% FBS with or without test compounds and the cultures were incubated for 48 h. In addition, RPMI 1640 with 10% FBS supplemented with DMSO (same concentration used with test compounds) was evaluated to determine the effect of inhibition or toxicity on cultures. Culture wells were washed with PBS, and then PBS was replaced by Bouin’s solution. After fixation of cultures, the Bouin solution was removed and decolorized with 70% ethanol, followed by 5 washes with PBS. Culture wells were labeled with an anti-C. parvum fluorescein-labeled monoclonal antibody (C3C3-FITC) and parasites were enumerated via quantitative fluorescent microscopy at 400× magnification using an Olympus IX73 microscope (Waltham, MA, USA). Twenty-four sequential, non-overlapping fields per well were captured as digital images, constituting a representative subsample of the entire well. The parasites were quantified using OpenCFU (https://sourceforge.net/projects/opencfu/, accessed on 4 October 2014) software based on the size of the fluorescing parasites and the parasite-specific fluorescent signal. Data were obtained from four well replicates, and each experiment was repeated at least twice. Dose–effect curves and the median effective concentration (EC50) of each compound alone or in combination was determined using CompuSyn (ComboSyn, Inc., Paramus, NJ, USA, ver. 2.1 for Microsoft Windows) computer software. The EC50 was defined as the concentration required for reducing the number of parasites by 50% compared with the untreated control. […]

[3] = Compound toxicity for host cell cultures (CellTiter 96 tetrazolium assay); format: cell-based, human; conditions: human; HDAC inhibitors; 48 h; read-out: Cytotoxicity Concentration (CC50) for HCT-8 Host Cells
Procedure: (§1) Test compound toxicity for HCT-8 cell cultures was assessed using the CellTiter 96 Non-Radioactive Cell Proliferation/Cytotoxicity assay as recommended by the manufacturer (Promega Corporation, Madison, WI, USA).

[4] = test system: E. invadens; parameters: method as in PMID 15659070; conditions: incubated individually; cited from earlier work
[5] = test system: C. parvum sporozoites; assay: SCFA treatment of live sporozoites before inoculation onto HCT-8 cells; format: cell-based, Cryptosporidium parvum; conditions: for inhibition of sporozoites: 45 min incubation with sporozoites prior to infection of host cell monolayers; for EC50: sporozoites incubated 45 min with SCFA, washed, then 48 h development on HCT-8 cells, read-out: EC50 for Sporozoite Stages
Procedure: Sporozoites were prepared according to You et al., 1998 [15]. Briefly, after excystation, the C. parvum oocysts and sporozoite mixture was filtered through a […] filter using a syringe and centrifuged, washed and counted. Isolated sporozoites were incubated with different SCFAs for 45 min, then washed several times to remove SCFAs before plating on cell monolayers. Sporozoites were then inoculated onto HCT-8 cells and incubated for 3 h. Monolayers were then washed, media was replaced and parasites were allowed to develop for 48 h, as described in the culture assay above. Cells were fixed and labeled and parasitic stages were quantitated as described above.

[6] = test system: T. gondii; parameters: method as in PMID 17626366; conditions: cited from earlier work; for IC50: cell monolayers infected and then treated
[7] = test system: C. parvum; parameters: method as in PMID 24273180; conditions: cited from earlier work
[8] = test system: C. parvum; parameters: method as in PMID 24273180; conditions: cited from earlier work; remark: listed apart in the source
[9] = test system: HCT-8 cells; assay: Compound toxicity for host cell cultures (CellTiter 96 tetrazolium assay); format: cell-based, human
Procedure: as §1

[10] = test system: cytokine production in HCT-8 cells; assay: Cytokine production, Luminex 48-plex, HCT-8 supernatants; format: cell-based, human; conditions: for majority of cytokines in the 48-plex assay (including IL-6 and TNF-α): 48 h treatment, alone or in combination with C. parvum infection
Procedure: For the cytokine assay, the in vitro infection assay was performed as described above. Supernatants from 24-well plates were collected and stored at –80 °C. Luminex multiplex assays were completed by Eve Technologies using the Human Cytokine discovery Array 48-plex Panel (Calgary, AB, Canada).

[11] = test system: apoptosis in HCT-8 cells; assay: Apoptosis assay (Caspase-Glo 3/7); format: cell-based, human; conditions: 24 h
Procedure: In vitro assays were performed as described above. Briefly, HCT-8 cells were infected with C. parvum and/or treated with 1 mM butyrate for 24 h, after which the cells were analyzed for percent apoptosis. Control wells (uninfected, untreated) were compared with treated wells and infected wells. Apoptosis in HCT-8 cell cultures was measured using a commercially available assay (Promega Corporation, Madison, WI, USA). Caspase-Glo3/7 reagent was added directly to the assay wells.

[12] = test system: CpHDAC3; conditions: recombinant protein; cited from earlier work
[13] = test system: autophagy in HCT-8 cells; assay: Autophagy assay (autophagosome detection reagent); format: cell-based, human; conditions: 24 h
Procedure: In vitro assays were performed as described above. Briefly, HCT-8 cells were infected with C. parvum and/or treated with 1 mM butyrate for 24 h, after which the cells were analyzed for […]. Control wells (uninfected, untreated) were compared with treated wells and infected wells. An autophagy assay was used following the recommendation of the manufacturer (Sigma-Aldrich, St. Louis, MO, USA). The medium was removed from the wells and 100 µL of the proprietary autophagosome detection reagent was added directly to each well. The plate was then incubated for 45 min at 37 °C and 5% CO2. The detection reagent was then removed, and each well was washed 3 times with the provided wash buffer before measuring fluorescence (λex = 360/λem = 520 nm) with a microplate reader. The intensity of the fluorescence correlates directly with the amount of autophagy observed.

[14] = test system: T. gondii; parameters: method as in PMID 34339265; conditions: treatment of mice; cited from earlier work
[15] = HCT-8 cells infected with C. parvum, 48 h treatment, read-out: EC50 for Intracellular Stages
[16] = C. parvum infected then 1 mM butyrate, 48 h, compared with butyrate alone or infection alone
[17] = Cryptosporidium parvum, HCT-8, 48 h, HCT-8 cells infected with C. parvum, 48 h treatment, read-out: EC50 for Intracellular Stages
[18] = HDAC inhibitors, infected HCT-8 cells, 48 h, read-out: EC50 of Intracellular Stages

Compound: CCC(=O)CCCCC[C@@H]1NC(=O)[C@H]2CCCCN2C(=O)[C@H]([C@@H](C)CC)NC(=O)[C@H](Cc2cn(OC)c3ccccc23)NC1=O [Apicidin]
anti-cryptosporidial activity at concentration [1]: 30 ng/mL | EC50 ([2]; Cryptosporidium parvum, HCT-8, 48 h, read-out: EC50 of Intracellular Stages, HDAC inhibitors, infected HCT-8 cells, 48 h): 0.02 µM | EC50 ([2]; read-out: EC50 of Intracellular Stages, HDAC inhibitors, infected HCT-8 cells, 48 h): 0.04 µM | CC50 at 48 h [3]: 150 µM

EC50 [5]: > 100000 µM | EC50 [2, 15]: 3000 to 4000 µM
Compound: CCC(=O)O [Propionate]
concentration range inhibiting encystment [4]: 6 to 22 mM | inhibition of sporozoites [5]: no inhibition

Compound: O=C(O)CCCc1ccccc1 [4-phenylbuyrate]
inhibition of T. gondii in vitro [6]: inhibit

Compound: O=C(CCCCCCC(=O)Nc1ccccc1)NO [vorinostat]
efficacy in a mouse model [7]: efficacy | in vitro activity [8]: in vitro activity

EC50 [5]: > 100000 µM | EC50 [2, 15]: 4000 µM
Compound: CC(=O)O [Acetate]
concentration range inhibiting encystment [4]: 6 to 22 mM | inhibition of sporozoites [5]: no inhibition | CC50 [9]: > 200000 µM

Compound: CCCC(=O)O [Butyrate]
concentration range inhibiting encystment [4]: 6 to 22 mM | majority of cytokines in the 48-plex assay (including IL-6 and TNF-α) [10]: not significantly altered | IL-1α [10, 16]: significant increase | IL-8 [10, 16]: significant increase | inhibition of sporozoites [5]: inhibited growth | EC50 ([5]; Cryptosporidium parvum): 2000 µM | apoptosis ([11]; 1.0 mM alone, compared to control, p < 0.05): significantly higher percentage of apoptosis | apoptosis ([11]; C. parvum infection plus treatment 3 h after infection, 1 mM): additional increase in apoptosis | EC50 [2, 17]: 4000 to 10000 µM | EC50 [2, 15]: 3000 to 8000 µM | inhibition of CpHDAC3 [12]: did not inhibit | IC50 [6]: 1000 to 5000 µM | inhibition of T. gondii in vitro [6]: inhibit | autophagy ([13]; 1 mM alone, uninfected cells): no difference | autophagy ([13]; cells infected with C. parvum and treated, 1 mM): significant decrease in autophagy

Compound: COc1ccc(Cn2ccc3ccc(C(=O)NO)cc32)cc1 [PCI 34051]
majority of cytokines in the 48-plex assay (including IL-6 and TNF-α) [10]: did not increase cytokine expression | majority of cytokines in the 48-plex assay (including IL-6 and TNF-α) ([10]; listed as PCI 34,051): not significantly altered | EC50 [2, 18]: 0.001 µM and 0.001 to 0.007 µM | toxicity ([9]; below 200 nM): no toxicity

EC50 ([5]; Cryptosporidium parvum): > 100000 µM | EC50 [2, 17]: 10000 µM
Compound: CCCC(CCC)C(=O)O [Valproate, reference compound]
inhibition of sporozoites [5]: no inhibition | number of T. gondii cysts in the brains of mice [14]: reduce the number of T. gondii cysts | IC50 [6]: 1000 to 5000 µM | inhibition of T. gondii in vitro [6]: inhibit

Compound: CC(/C=C/C(=O)NO)=C\[C@@H](C)C(=O)c1ccc(N(C)C)cc1 [Trichostatin A]
anti-cryptosporidial activity at concentration [1]: 30 ng/mL | EC50 [2, 18]: 0.02 µM | CC50 ([9]; HDAC inhibitors, 48 h, read-out: Cytotoxicity Concentration (CC50) for HCT-8 Host Cells): > 200 µM
